Measurements reported in PMC11311998, “AR71, Histamine H3 Receptor Ligand—In Vitro and In Vivo Evaluation (Anti-Inflammatory Activity, Metabolic Stability, Toxicity, and Analgesic Action)” (International Journal of Molecular Sciences, 2024).
Like-named read-outs stand apart in the source and are kept apart here.

Legend:
[1] = tested on: human peripheral blood mononuclear cells (PBMCs); test: PBMC viability (resazurin reduction assay); type: cell-based; details: for IC50: Homo sapiens, PBMC, read-out: IC50 PBM Cells
Description: PBMCs were isolated from a leucocyte-buffy coat collected from the blood of healthy non-smoking donors from the Blood Bank in Lodz, Poland. They included lymphocytes, monocytes, and other white blood cells with a round nucleus. A portion of the leucocyte-buffy coat was diluted in 1% phosphate buffer saline (PBS). Then, it was centrifuged in a density gradient of Lymphosep (Cytogen, Zgierz, Poland) at 200× g for 20 min at room temperature. Next, the cells were collected and washed thrice in 1% PBS. The supernatant was poured off, and the pellet of the cells was resuspended in RPMI 1640 medium (Lonza, Basel, Switzerland). The study protocol was approved by the Committee for Research on Human Subjects of the University of Lodz, Poland (17/KBBN-UŁ/III/2019).
The resazurin reduction assay was performed similarly to that previously described by O’Brien et al.. Resazurin salt powder was dissolved in sterile PBS. The cells were seeded on 96-well plates in 5 × 10^4 for PBMCs per well. AR71 was added to the wells to achieve final concentrations of 0.78, 1.56, 3.125, 6.25, 12.5, 25, 50, and 100 µM. In the next step, the plates were incubated at 37 °C in 5% CO2 for 2 h, 24 h, 48 h, and 72 h. Then, 10 µL of resazurin salt was added to each well, and the plates were incubated again at 37 °C in 5% CO2 for 2 h. Next, fluorescence was measured with microplate reader BioTek Synergy HT (Agilent Technologies, Inc., Santa Clara, CA, USA) using an excitation wavelength of 530/25 nm and an emission wavelength of 590/35 nm.
The viability of PBMCs was estimated after 2, 24, 48, and 72 h of incubation with AR71. The viability of individual samples was calculated relative to the negative control (NC, untreated cells), which was taken as 100%. The positive control was PBMCs incubated with 0.1% DMSO (vehicle, Veh). The results represented the means with SEMs of six independent experiments and were expressed as a percentage of untreated control cells. The values were plotted against all used concentrations of AR71 to calculate the viability inhibition concentration at 50% (IC50) using GraphPad Prism 6.07 (GraphPad Software, Inc., San Diego, CA, USA).

[2] = tested on: CCI-exposed mice; test: von Frey test in CCI neuropathic pain model; type: in vivo, mouse
Description: The effects of a single intraperitoneal (i.p.) injection of AR71 at doses of 5, 10, and 20 mg/kg on mechanical (von Frey test) and thermal (cold plate and tail flick tests) stimulus were evaluated on day 14 following sciatic nerve injury (Figure 15). There were seven to eight animals per group. All these tests were performed in three time series after the administration of the compound. In the case of the von Frey test—after 30, 90, and 180 min; the cold plate test—after 35, 95, and 185 min; and the tail flick test—after 40, 100, and 190 min.
The mice were randomly divided into four experimental groups. One group received a vehicle treatment (10% DMSO/10%(2-Hydroxypropyl)-β-cyclodextrin/water for injection, i.p.), while the other three groups were administered with AR71 at doses of 5, 10, or 20 mg/kg of body weight (b.w.), i.p. Baseline measurements for all tests were conducted before the compounds were injected, and the results are presented as percentages of the maximal possible effect (% MPE). […] All data from behavioural tests were analysed using a one-way ANOVA with Bonferroni’s multiple comparison post hoc test.
The model of chronic constriction injury (CCI) to the sciatic nerve was established according to Bennett and Xie. The surgical method was performed under isoflurate anaesthesia (2% isoflurane in 100% oxygen with a flow of 1.5 L/min). Below the right hipbone, a small incision was performed, and three ligatures (4/0 silk) around the sciatic nerve were made (with 1 mm spacing) until a brief twitch in the respective hind limb was observed. The CCI procedure leads to hypersensitivity to mechanical and thermal stimuli. Behavioural tests were performed on day 14 after the injury. AR71 was dissolved in 10% DMSO/10% (2-Hydroxypropyl)-β-cyclodextrin/water for injection and was given i.p. at doses of 5, 10, and 20 mg/kg of body weight (injection volume 10 mL/kg of bw). The control group received the vehicle (10% DMSO/10% (2-Hydroxypropyl)-β-cyclodextrin/water for injection).
Behavioural experiments were performed between 8:00 a.m. and 2:00 p.m. […]

[3] = tested on: BV-2 cells; design: method as in PMID 36370200; details: LPS-treated BV-2 cells; cited from earlier work

SMILES: COc1cc(/C=C/C(=O)c2ccc(OCCCN3CCCCC3)cc2)cc(OC)c1OC [AR71, (E)-3-(3,4,5-trimethoxyphenyl)-1-(4-(3-(piperidin-1-yl)propoxy)phenyl)prop-2-en-1-one]
- decrease in the number of PBMCs ([1]; 100 µM, regardless of incubation time (2-72 h)): 80–98%
- cytotoxic effect on PBMCs ([1]; 0.78, 1.56 and 3.125 µM, 2 h): did not cause a cytotoxic effect
- decrease in the number of PBMCs ([1]; 6.25–50 µM, 2 h): ≤ 20%
- IC50 ([1]; 2 h incubation): 71 µM
- IC50 ([1]; 24 h incubation): 21 µM
- IC50 ([1]; 48 h incubation): 7.48 µM
- IC50 ([1]; 72 h incubation): 4.53 µM
- effect in von Frey test vs vehicle ([2]; 10 mg/kg i.p., 30 min after injection, p < 0.05): significant pain-relieving effects
- effect in von Frey test vs vehicle ([2]; 20 mg/kg i.p., 90 and 180 min after injection (p < 0.001 and p < 0.01), lower doses not effective): increased withdrawal thresholds
- effect in von Frey test vs vehicle ([2]; 20 mg/kg i.p., 30 min after injection, p < 0.001): significant pain-relieving effects
- effect on proinflammatory cytokines (IL-1β, IL-6, TNF-α), mRNA and protein level [3]: reduced the level of proinflammatory cytokines
